Measured values published in patent publication US11173120B2, “Stable formulations of lipids and liposomes” (BioNTech RNA Pharmaceuticals GmbH, priority 2014, dated 2021).

Assay: Stability of DOPE in DOTMA/DOPE liposomes as a function of pH (HPLC lipid recovery, 37° C.)
Type: physicochemical
Conditions: under all conditions (pH 4-7), up to 6 weeks
Protocol: The stability of DOPE in DOTMA/DOPE liposomes was investigated after adjusting the pH to different values between pH 7 and pH 4. For pH 7, 10 mM HEPES buffer was used. For all lower pH values, acetic acid buffers (all 10 mM) were used (see Table 1). R6 glass type I vials were filled with 2 mL of the liposomes dispersion and stored in a stability chamber at 37° C. pH values were measured by potentiometry using a WTW pH-meter inoLab pH 7310, Weilheim, Germany.
The lipid stability was tested at different time points up to 6 weeks after preparation of the liposomes by measuring the lipid concentration in the liposome preparation using a HPLC system (Agilent Technologies 1200 equipped with DAD and ELSD detectors, Santa Clara, Calif., USA).
Plotted is the normalized recovery of DOPE (in percent) from the DOTMA/DOPE liposomes. […] In contrast, at pH 5, already degradation with a recovery of only 80% of the initial value was observed.

CCCCCCCC/C=C\CCCCCCCCOCC(C[N+](C)(C)C)OCCCCCCCC/C=C\CCCCCCCC (stereo not shown) [DOTMA, 1,2-di-O-octadecenyl-3-trimethylammoniumpropane]
degradation of DOTMA in DOTMA/DOPE liposomes: no indication for degradation
